Results from US10485747B2, “Hair-dye composition” (KAO CORPORATION, priority 2014, dated 2019).

Experiment: pKa, dissociation state and displayed color of the azo dyes
Type: physicochemical
Settings: proton dissociated
Description: Thus, in the hair dye composition of the present invention having pH (25° C.) of 7.5 to 12, almost 80% or more of these azo dyes are present in an anionic state where a proton(s) is dissociated.

Row | color displayed when a proton(s) dissociates | SMILES
1 | yellow | Cn1nccc1/N=N/c1ccc(O)c(Cl)c1 [Example A-3]
2 | red | CSc1nsc(/N=N/c2ccc(O)c(Cl)c2)n1 [Example A-1]
3 | blue | NS(=O)(=O)c1ccc2nsc(/N=N/c3ccc(O)c(Cl)c3)c2c1 [Example A-2]
